Experimental data published in patent EP3375430A1, “FRAGRANCE COMPOSITIONS” (Takasago International Corporation, priority 2017, dated 2018).

Legend:
[1] = Amount of fragrance ingredients retained on paper blotter after evaporation (ethanol extraction, GC-MS); type: physicochemical
How it was run: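 100 µL of fragrance formulation applied to paper blotters kept at 32°C open to air; at each time three blotters extracted 1 h in ethanol with methyl decanoate internal standard and analysed by GC-MS (HP-5MS, 50–280°C). Amounts averaged over triplicates and expressed as percent of time-zero level.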

[2] = Headspace concentration of fragrance ingredients over blotter (thermal desorption GC-MS); type: physicochemical; settings: fragrance TAK;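 on headspace concentration in composition C1 compared to control EdT1: C1 is an invention composition and EdT1 a conventional EdT of fragrance TAK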
How it was run: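 Fragrance (100µL) applied to a 10 cm perfumers' blotter held on a 32°C hot plate, equilibrated 5 min; headspace drawn through Tenax TA tubes at 17mL/min until 280mL collected, repeated at later sampling times. Tubes thermally desorbed splitless onto HP-5MS column, GC-MS detection, mass range 35 to 350.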

amount of fragrance ingredient retained on blotter (percentage of the initial amount) ([1]; Table 3, fragrance TAK in C1, 15 min, 32°C): 80%
amount of fragrance ingredient retained on blotter (percentage of the initial amount) ([1]; Table 3, fragrance TAK in C1, 60 min, 32°C): 61%
amount of fragrance ingredient retained on blotter (percentage of the initial amount) ([1]; Table 3, fragrance TAK in C1, 120 min, 32°C): 35%
amount of fragrance ingredient retained on blotter (percentage of the initial amount) ([1]; Table 3, fragrance TAK in C1, 240 min, 32°C): 13%
amount of fragrance ingredient retained on blotter (percentage of the initial amount) ([1]; Table 3, fragrance TAK in C1, 480 min, 32°C): 3%
amount of fragrance ingredient retained on blotter (percentage of the initial amount) ([1]; Table 3, fragrance TAK in EdT1, 15 min, 32°C): 57%
amount of fragrance ingredient retained on blotter (percentage of the initial amount) ([1]; Table 3, fragrance TAK in EdT1, 60 min, 32°C): 9%
amount of fragrance ingredient retained on blotter (percentage of the initial amount) ([1]; Table 3, fragrance TAK in EdT1, 120 min, 32°C): 1%
amount of fragrance ingredient retained on blotter (percentage of the initial amount) ([1]; Table 3, fragrance TAK in EdT1, 240 min, 32°C): 1%
amount of fragrance ingredient retained on blotter (percentage of the initial amount) ([1]; Table 3, fragrance TAK in EdT1, 480 min, 32°C): <1%
amount of fragrance ingredient retained on blotter (percentage of the initial amount) ([1]; Table 3, fragrance TAK in EdT1 or C1, T0, set at 100% (normalisation)): 100%
amount of fragrance ingredient retained on blotter (percentage of the initial amount) ([1]; Table 4, fragrance TAK in C2, 15 min, 32°C): 92%
amount of fragrance ingredient retained on blotter (percentage of the initial amount) ([1]; Table 4, fragrance TAK in C2, 480 min, 32°C): 4%
amount of fragrance ingredient retained on blotter (percentage of the initial amount) ([1]; Table 4, fragrance TAK in EdT1, 15 min, 32°C): 58%
amount of fragrance ingredient retained on blotter (percentage of the initial amount) ([1]; Table 4, fragrance TAK in EdT1, 480 min, 32°C): 3%
amount of fragrance ingredient retained on blotter (percentage of the initial amount) ([1]; Table 4, fragrance TAK in EdT1 or C2, T0, set at 100% (normalisation)): 100%
amount of fragrance ingredient retained on blotter (percentage of the initial amount) ([1]; Table 5, fragrance TAK in C3, 15 min, 32°C): 85%
amount of fragrance ingredient retained on blotter (percentage of the initial amount) ([1]; Table 5, fragrance TAK in C3, 60 min, 32°C): 61%
amount of fragrance ingredient retained on blotter (percentage of the initial amount) ([1]; Table 5, fragrance TAK in C3, 120 min, 32°C): 37%
amount of fragrance ingredient retained on blotter (percentage of the initial amount) ([1]; Table 5, fragrance TAK in C3, 240 min, 32°C): 18%
amount of fragrance ingredient retained on blotter (percentage of the initial amount) ([1]; Table 5, fragrance TAK in C3, 480 min, 32°C): 3%
amount of fragrance ingredient retained on blotter (percentage of the initial amount) ([1]; Table 5, fragrance TAK in C3, 1440 min, 32°C): 1%
amount of fragrance ingredient retained on blotter (percentage of the initial amount) ([1]; Table 5, fragrance TAK in EdT1, 15 min, 32°C): 57%
amount of fragrance ingredient retained on blotter (percentage of the initial amount) ([1]; Table 5, fragrance TAK in EdT1, 60 min, 32°C): 9%
amount of fragrance ingredient retained on blotter (percentage of the initial amount) ([1]; Table 5, fragrance TAK in EdT1, 120 min, 32°C): 1%
amount of fragrance ingredient retained on blotter (percentage of the initial amount) ([1]; Table 5, fragrance TAK in EdT1, 240 min, 32°C): <1%
amount of fragrance ingredient retained on blotter (percentage of the initial amount) ([1]; Table 5, fragrance TAK in EdT1, 480 min, 32°C): <1%
amount of fragrance ingredient retained on blotter (percentage of the initial amount) ([1]; Table 5, fragrance TAK in EdT1, 1440 min, 32°C): <1%
amount of fragrance ingredient retained on blotter (percentage of the initial amount) ([1]; Table 5, fragrance TAK in EdT1 or C3, T0, set at 100% (normalisation)): 100%
amount of fragrance ingredient retained on blotter (percentage of the initial amount) ([1]; Table 6, fragrance TAK in C4, 15 min, 32°C): 81%
amount of fragrance ingredient retained on blotter (percentage of the initial amount) ([1]; Table 6, fragrance TAK in C4, 60 min, 32°C): 61%
amount of fragrance ingredient retained on blotter (percentage of the initial amount) ([1]; Table 6, fragrance TAK in C4, 120 min, 32°C): 28%
amount of fragrance ingredient retained on blotter (percentage of the initial amount) ([1]; Table 6, fragrance TAK in C4, 240 min, 32°C): 13%
amount of fragrance ingredient retained on blotter (percentage of the initial amount) ([1]; Table 6, fragrance TAK in C4, 480 min, 32°C): 8%
amount of fragrance ingredient retained on blotter (percentage of the initial amount) ([1]; Table 6, fragrance TAK in EdT1, 15 min, 32°C): 57%
amount of fragrance ingredient retained on blotter (percentage of the initial amount) ([1]; Table 6, fragrance TAK in EdT1, 60 min, 32°C): 9%
amount of fragrance ingredient retained on blotter (percentage of the initial amount) ([1]; Table 6, fragrance TAK in EdT1, 120 min, 32°C): 1%
amount of fragrance ingredient retained on blotter (percentage of the initial amount) ([1]; Table 6, fragrance TAK in EdT1, 240 min, 32°C): <1%
amount of fragrance ingredient retained on blotter (percentage of the initial amount) ([1]; Table 6, fragrance TAK in EdT1, 480 min, 32°C): <1%
amount of fragrance ingredient retained on blotter (percentage of the initial amount) ([1]; Table 6, fragrance TAK in EdT1 or C4, T0, set at 100% (normalisation)): 100%
headspace concentration in composition C1 compared to control EdT1 ([2]; T0 + 4h, Figure 3): significantly greater
headspace concentration in composition C14 compared to control EdT1 ([2]; T0+4h and T0+8h, Figures 17 and 18): significantly greater
headspace concentration in composition C15 compared to control EdT1 ([2]; T0+4h and T0+8h, Figures 20 and 21, difference significant for linalool, linalyl acetate and Verdox™): greater
headspace concentration in composition C1 compared to control EdT1 ([2]; T0 + 8h, Figure 4): much greater
headspace concentration in composition C1 compared to control EdT1 ([2]; after 1 hour, Figure 2): greater
Compound: C=CC(C)(O)CCC=C(C)C (stereo not drawn) [Linalool]
